Assay type in all cases: cell-based
The target of assay [1] is Met (phospho-Met, HGF-stimulated PC-3 prostate cancer cells) (Homo sapiens (Human), UniProt P08581). In words: Met autophosphorylation ELISA in PC-3 cells (Example F). Particulars: cellular activity, read-out: c-Met IC50. As for the experimental part: PC-3 prostate cancer cells (ATCC #CRL-1435) were seeded at 4×10^4 cells/well onto 24-well plates (Greiner #662165), in DMEM (Thermo Fisher #11995-040) containing 10% FBS (Thermo Fisher #26140-079), 1% MEM NEAA (Thermo Fisher #11140-050), 1% GlutaMax (Thermo Fisher #35050-061), and 1% Penicillin Streptomycin (Thermo Fisher #15140-122). PC-3 cells were incubated at 37° C., 5% CO2 for 24 h and then starved for 3 h in serum-free medium. Test compounds were serially diluted to produce an 8-point dose curve in fresh serum-free medium to a final concentration of 0.3% DMSO (vehicle) and added to the cells and incubated for 1 h. Cells were then stimulated with 100 ng/mL recombinant human HGF (R&D Systems #294-HG-250) for 10 min, washed with cold PBS, and immediately lysed with […] of cold 1× lysis buffer [20 mM Tris, 137 mM sodium chloride, 2 mM EDTA, 10% glycerol, 1% NP-40 alternative, 1 mM activated sodium orthovanadate, 1 mM PefaBloc SC (Sigma-Aldrich #11429868001), protease/phosphatase inhibitor tablet (Thermo Fisher #A32959)]. Lysates were clarified by centrifugation and 100 μL/well added into the PathScan phospho-Met (panTyr) Sandwich ELISA (Cell Signaling Technology #7333). Assay was performed according to manufacturer's instructions. Positive control wells (100% activity) contained HGF-stimulated, DMSO-treated cell lysates. Negative control wells (0% activity) contained HGF-stimulated, reference inhibitor-treated cell lysates. IC50 values were calculated by nonlinear regression analysis using a 4-parameter logistic curve fit in ActivityBase XE (IDBS).
For orientation: In an ELISA, binding on a coated surface is turned into a signal by an enzyme label.

The target in assay [2] is KDR (phospho-KDR, VEGF165-stimulated HUVEC cells) (Homo sapiens (Human), UniProt P35968). In words: KDR autophosphorylation ELISA in HUVEC cells (Example G). To be noted: cellular activity; KDR autophosphorylation ELISA in HUVEC cells. As to the method:
Human umbilical vein endothelial cells or HUVEC (Lonza #C2519A) were seeded at 2×10^4 cells/well onto 96-well plates (Corning #3904), in EGM-2 growth medium (Lonza #CC-3162) containing 1% Penicillin Streptomycin (Thermo Fisher #15140-122). HUVEC cells were incubated at 37° C., 5% CO2 for 24 h and then starved for 24 h in serum-free EBM-2 basal medium (Lonza #CC-3156) containing 1% Penicillin Streptomycin. Test compounds were serially diluted to produce an 8-point dose curve in fresh serum-free medium to a final concentration of 0.3% DMSO (vehicle) and added to the cells and incubated for 1 h. Cells were then stimulated with 100 ng/mL recombinant human VEGF165 (R&D Systems #293-VE-500) for 5 min, washed with cold PBS, and immediately lysed with […] of cold 1× lysis buffer [20 mM Tris, 137 mM sodium chloride, 2 mM EDTA, 10% glycerol, 1% NP-40 alternative, 1 mM activated sodium orthovanadate, 1 mM PefaBloc SC (Sigma-Aldrich #11429868001), protease/phosphatase inhibitor tablet (Thermo Fisher #A32959)]. Lysates were collected and 100 μL/well added into the human phospho-KDR DuoSet IC ELISA (R&D Systems #DYC1766-2). Assay was performed according to manufacturer's instructions and sample phospho-KDR concentrations were extrapolated using human phospho-KDR control (R&D Systems #841421) as a standard. Positive control wells (100% activity) contained VEGF165-stimulated, DMSO-treated cell lysates. Negative control wells (0% activity) contained non-stimulated cell lysates. IC50 values were calculated by nonlinear regression analysis using a 4-parameter logistic curve fit in ActivityBase XE (IDBS).

Assay [3] concerns the target Mer (phospho-Mer, MERTK-transfected 293A cells) (Homo sapiens (Human), UniProt Q12866). In words: Mer autophosphorylation ELISA in transient transfected 293A cells (Example H). Particulars: cellular activity. As to the method:
293A cells (Thermo Fisher #R70507) were seeded at 1.5×10^6 cells/well onto 100 mm dish (Greiner #664169), in DMEM (Thermo Fisher #11995-040) containing 10% FBS (Thermo Fisher #26140-079), 1% MEM NEAA (Thermo Fisher #11140-050), 1% GlutaMax (Thermo Fisher #35050-061), and 1% Penicillin Streptomycin (Thermo Fisher #15140-122). 293A cells were incubated at 37° C., 5% CO2 for 24 h and then transfected with […] MERTK DNA (Genecopoeia #EX-Z8208-M02) using TransIT LT1 transfection reagent (Mirus-Bio #MIR2305). After 24 h incubation, the transfected 293A cells were seeded at 1×10^5 cells/well onto 96-well plates (Corning #3904) in DMEM growth medium overnight. Test compounds were serially diluted to produce an 8-point dose curve in fresh serum-free medium to a final concentration of 0.3% DMSO (vehicle) and added to the cells and incubated for 1 h. Cells were then immediately lysed with 150 μL of cold 1× lysis buffer [20 mM Tris, 137 mM sodium chloride, 2 mM EDTA, 10% glycerol, 1% NP-40 alternative, 1 mM activated sodium orthovanadate, 1 mM PefaBloc SC (Sigma-Aldrich #11429868001), protease/phosphatase inhibitor tablet (Thermo Fisher #A32959)]. Lysates were clarified by centrifugation and 50 µL/well added in to the human phospho-Mer DuoSet IC ELISA (R&D Systems #DYC2579-2). Assay was performed according to manufacturer's instructions and sample phospho-Mer concentrations were extrapolated using human phospho-Mer control (R&D Systems #841793) as a standard. Positive control wells (100% activity) contained DMSO-treated cell lysates. Negative control wells (0% activity) contained reference inhibitor-treated cell lysates. IC50 values were calculated by nonlinear regression analysis using a 4-parameter logistic curve fit in ActivityBase XE (JDBS).

The mark [4] stands for this setting: Met autophosphorylation ELISA in PC-3 cells.
The mark [5] stands for this setting: Mer autophosphorylation ELISA in transient transfected 293A cells.

Like-named read-outs stand apart in the source and are kept apart here.

Mer (phospho-Mer, MERTK-transfected 293A cells), sequence (Q12866 21-999): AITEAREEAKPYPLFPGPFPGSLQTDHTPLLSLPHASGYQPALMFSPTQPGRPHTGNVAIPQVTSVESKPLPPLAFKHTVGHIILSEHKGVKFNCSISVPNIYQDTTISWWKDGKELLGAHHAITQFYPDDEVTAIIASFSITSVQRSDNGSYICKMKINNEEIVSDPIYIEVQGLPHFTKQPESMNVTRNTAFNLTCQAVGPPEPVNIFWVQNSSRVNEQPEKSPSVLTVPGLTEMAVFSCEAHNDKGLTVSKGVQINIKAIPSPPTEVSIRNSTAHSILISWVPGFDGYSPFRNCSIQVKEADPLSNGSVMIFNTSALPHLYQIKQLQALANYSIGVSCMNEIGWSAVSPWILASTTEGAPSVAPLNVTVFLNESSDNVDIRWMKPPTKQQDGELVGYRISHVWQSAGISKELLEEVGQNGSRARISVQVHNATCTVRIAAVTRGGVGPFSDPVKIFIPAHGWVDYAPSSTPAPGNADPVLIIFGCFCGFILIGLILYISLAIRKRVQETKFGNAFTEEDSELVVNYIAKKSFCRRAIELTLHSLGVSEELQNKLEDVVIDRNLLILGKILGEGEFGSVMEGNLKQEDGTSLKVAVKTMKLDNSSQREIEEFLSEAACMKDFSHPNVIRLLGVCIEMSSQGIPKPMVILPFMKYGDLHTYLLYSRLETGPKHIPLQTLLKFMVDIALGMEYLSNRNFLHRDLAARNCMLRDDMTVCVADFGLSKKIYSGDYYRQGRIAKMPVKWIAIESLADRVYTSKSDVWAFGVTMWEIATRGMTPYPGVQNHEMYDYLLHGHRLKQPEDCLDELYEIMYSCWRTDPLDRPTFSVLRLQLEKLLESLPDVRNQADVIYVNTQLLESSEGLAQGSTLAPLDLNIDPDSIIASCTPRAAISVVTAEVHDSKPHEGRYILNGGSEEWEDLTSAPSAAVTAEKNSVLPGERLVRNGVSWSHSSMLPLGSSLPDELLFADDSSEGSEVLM
KDR (phospho-KDR, VEGF165-stimulated HUVEC cells), sequence (P35968 20-1356): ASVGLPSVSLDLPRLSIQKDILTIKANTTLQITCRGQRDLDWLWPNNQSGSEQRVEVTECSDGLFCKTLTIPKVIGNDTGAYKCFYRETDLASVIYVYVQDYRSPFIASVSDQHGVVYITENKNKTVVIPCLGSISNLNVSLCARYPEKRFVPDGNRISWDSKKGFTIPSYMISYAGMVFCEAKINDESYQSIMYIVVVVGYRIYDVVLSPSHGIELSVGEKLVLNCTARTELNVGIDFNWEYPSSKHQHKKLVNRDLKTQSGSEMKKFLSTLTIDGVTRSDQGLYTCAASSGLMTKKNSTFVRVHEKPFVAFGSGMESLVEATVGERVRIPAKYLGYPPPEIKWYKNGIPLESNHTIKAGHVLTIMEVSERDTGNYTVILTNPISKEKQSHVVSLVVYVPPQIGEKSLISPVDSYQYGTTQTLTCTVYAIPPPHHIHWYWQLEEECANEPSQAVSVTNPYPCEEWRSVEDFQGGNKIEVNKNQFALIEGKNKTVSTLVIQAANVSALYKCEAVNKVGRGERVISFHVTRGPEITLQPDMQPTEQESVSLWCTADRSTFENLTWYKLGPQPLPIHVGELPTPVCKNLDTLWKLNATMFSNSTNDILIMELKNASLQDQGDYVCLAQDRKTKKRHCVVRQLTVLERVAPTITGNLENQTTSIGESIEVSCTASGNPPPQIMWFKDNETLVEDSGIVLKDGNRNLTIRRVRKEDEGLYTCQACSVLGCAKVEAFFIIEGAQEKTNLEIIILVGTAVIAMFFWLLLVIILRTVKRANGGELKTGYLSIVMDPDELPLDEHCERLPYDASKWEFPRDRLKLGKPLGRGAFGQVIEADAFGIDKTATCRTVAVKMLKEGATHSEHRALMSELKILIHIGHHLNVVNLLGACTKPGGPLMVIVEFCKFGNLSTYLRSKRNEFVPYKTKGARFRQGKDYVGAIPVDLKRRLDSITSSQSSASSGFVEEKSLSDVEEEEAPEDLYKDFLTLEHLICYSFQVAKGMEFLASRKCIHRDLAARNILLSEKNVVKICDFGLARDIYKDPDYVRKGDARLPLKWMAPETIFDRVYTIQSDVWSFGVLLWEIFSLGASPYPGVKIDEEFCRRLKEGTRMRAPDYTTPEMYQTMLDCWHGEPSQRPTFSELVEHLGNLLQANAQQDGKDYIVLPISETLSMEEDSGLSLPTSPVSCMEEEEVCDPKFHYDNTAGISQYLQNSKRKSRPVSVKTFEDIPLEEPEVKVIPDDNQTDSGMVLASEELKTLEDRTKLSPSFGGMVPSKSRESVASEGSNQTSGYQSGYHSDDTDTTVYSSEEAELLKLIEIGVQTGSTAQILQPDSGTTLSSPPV
Met (phospho-Met, HGF-stimulated PC-3 prostate cancer cells), sequence (P08581 25-1390): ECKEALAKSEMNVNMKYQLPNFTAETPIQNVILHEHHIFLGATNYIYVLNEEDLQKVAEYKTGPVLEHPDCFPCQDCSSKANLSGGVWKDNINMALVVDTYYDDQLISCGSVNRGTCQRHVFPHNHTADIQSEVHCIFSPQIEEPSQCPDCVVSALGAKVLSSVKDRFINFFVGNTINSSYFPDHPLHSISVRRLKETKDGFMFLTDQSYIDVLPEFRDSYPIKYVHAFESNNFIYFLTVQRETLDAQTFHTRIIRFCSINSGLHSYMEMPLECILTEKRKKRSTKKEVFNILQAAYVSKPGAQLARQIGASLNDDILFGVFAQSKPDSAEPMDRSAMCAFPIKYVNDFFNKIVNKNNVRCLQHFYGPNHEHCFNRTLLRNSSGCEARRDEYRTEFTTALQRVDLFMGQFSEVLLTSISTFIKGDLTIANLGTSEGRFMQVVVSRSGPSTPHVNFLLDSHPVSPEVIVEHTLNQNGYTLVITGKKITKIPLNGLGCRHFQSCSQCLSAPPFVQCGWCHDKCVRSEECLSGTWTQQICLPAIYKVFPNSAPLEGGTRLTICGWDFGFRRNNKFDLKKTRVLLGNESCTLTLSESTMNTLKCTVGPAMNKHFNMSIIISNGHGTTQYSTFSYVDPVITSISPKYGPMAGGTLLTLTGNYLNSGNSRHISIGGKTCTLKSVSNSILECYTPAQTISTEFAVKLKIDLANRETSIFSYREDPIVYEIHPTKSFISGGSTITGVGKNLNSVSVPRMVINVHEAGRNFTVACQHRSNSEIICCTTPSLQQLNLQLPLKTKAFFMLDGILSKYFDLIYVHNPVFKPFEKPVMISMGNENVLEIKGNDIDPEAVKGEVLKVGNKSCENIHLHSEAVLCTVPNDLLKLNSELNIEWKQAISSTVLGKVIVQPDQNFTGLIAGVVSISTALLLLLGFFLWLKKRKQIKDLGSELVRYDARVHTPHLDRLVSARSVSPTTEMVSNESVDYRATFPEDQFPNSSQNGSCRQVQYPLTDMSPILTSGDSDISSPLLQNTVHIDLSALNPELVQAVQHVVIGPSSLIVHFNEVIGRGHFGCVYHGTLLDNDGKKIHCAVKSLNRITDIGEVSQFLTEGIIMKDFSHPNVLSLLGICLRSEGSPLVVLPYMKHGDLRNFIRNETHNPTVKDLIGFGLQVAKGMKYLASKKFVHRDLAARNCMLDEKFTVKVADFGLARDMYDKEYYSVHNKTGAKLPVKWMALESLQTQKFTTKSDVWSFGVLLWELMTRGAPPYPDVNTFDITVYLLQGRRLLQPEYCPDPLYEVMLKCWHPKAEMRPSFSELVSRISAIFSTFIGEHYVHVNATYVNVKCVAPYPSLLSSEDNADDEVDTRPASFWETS

By IC50 is commonly meant the concentration at which inhibition is half-maximal. Turning to `COc1cnc2c(Oc3ccc(NC(=O)c4cnc(C)c(-c5ccc(C(C)C)cc5)c4O)cc3F)ccnc2c1` [Compound 705, N-[3-fluoro-4-[(7-methoxy-1,5-naphthyridin-4-yl)oxy]phenyl]-4-hydroxy-6-methyl-5-(4-propan-2-ylphenyl)pyridine-3-carboxamide], the IC50 in assay [1] (setting [4]) is under 100 nM; in assay [2], over 300 nM; in assay [3] (setting [5]), under 100 nM.
Regarding `COc1cnc2c(Oc3ccc(NC(=O)c4cnc(C)c(-c5ccc(F)c(F)c5)c4O)cc3F)ccnc2c1` [Compound 706, 5-(3,4-difluorophenyl)-N-[3-fluoro-4-[(7-methoxy-1,5-naphthyridin-4-yl)oxy]phenyl]-4-hydroxy-6-methylpyridine-3-carboxamide], the IC50 in assay [1] (setting [4]), in assay [2] and in assay [3] (setting [5]) was under 100 nM each time.
Consider `COc1cnc2c(Oc3ccc(NC(=O)c4cnc(C)c(-c5ccc(F)cc5OC)c4O)cc3F)ccnc2c1` [Compound 707, N-[3-fluoro-4-[(7-methoxy-1,5-naphthyridin-4-yl)oxy]phenyl]-5-(4-fluoro-2-methoxyphenyl)-4-hydroxy-6-methylpyridine-3-carboxamide], for which the IC50 in assay [1] (setting [4]), in assay [2] and in assay [3] (setting [5]) was under 100 nM each time.
Regarding `COc1cc2nccc(Oc3ccc(NC(=O)c4c(C)nc(C)c(-c5ccc(F)c(F)c5)c4O)cc3F)c2nc1OC` [Compound 708, 5-(3,4-difluorophenyl)-N-[4-[(6,7-dimethoxy-1,5-naphthyridin-4-yl)oxy]-3-fluorophenyl]-4-hydroxy-2,6-dimethylpyridine-3-carboxamide], the IC50 in assay [1] (setting [4]), in assay [2] and in assay [3] (setting [5]) was under 100 nM each time.
In the case of `COc1cc(-c2c(C)nc(C)c(C(=O)Nc3ccc(Oc4ccnc5cc(OC)c(OC)nc45)c(F)c3)c2O)ccc1F` [Compound 709, N-[4-[(6,7-dimethoxy-1,5-naphthyridin-4-yl)oxy]-3-fluorophenyl]-5-(4-fluoro-3-methoxyphenyl)-4-hydroxy-2,6-dimethylpyridine-3-carboxamide], the IC50 in assay [1] (setting [4]), in assay [2] and in assay [3] (setting [5]) was under 100 nM throughout.
On to `COc1cc2nccc(Oc3ccc(NC(=O)c4c(C)nc(C)c(-c5ccc(F)c(C)c5)c4O)cc3F)c2nc1OC` [Compound 710, N-[4-[(6,7-dimethoxy-1,5-naphthyridin-4-yl)oxy]-3-fluorophenyl]-5-(4-fluoro-3-methylphenyl)-4-hydroxy-2,6-dimethylpyridine-3-carboxamide], for which the IC50 in assay [1] (setting [4]), in assay [2] and in assay [3] (setting [5]) was under 100 nM in each case.
Consider `COc1cc2nccc(Oc3ccc(NC(=O)c4c(C)nc(C)c(-c5ccc(C(C)C)cc5)c4O)cc3F)c2nc1OC` [Compound 711, N-[4-[(6,7-dimethoxy-1,5-naphthyridin-4-yl)oxy]-3-fluorophenyl]-4-hydroxy-2,6-dimethyl-5-(4-propan-2-ylphenyl)pyridine-3-carboxamide], for which the IC50 in assay [1] (setting [4]), in assay [2] and in assay [3] (setting [5]) was under 100 nM in each case.
For `COc1ccc(-c2c(C)nc(C)c(C(=O)Nc3ccc(Oc4ccnc5cc(OC)c(OC)nc45)c(F)c3)c2O)cc1C` [Compound 712, N-[4-[(6,7-dimethoxy-1,5-naphthyridin-4-yl)oxy]-3-fluorophenyl]-4-hydroxy-5-(4-methoxy-3-methylphenyl)-2,6-dimethylpyridine-3-carboxamide], the IC50 in assay [1] (setting [4]), in assay [2] and in assay [3] (setting [5]) was under 100 nM each time.
For `COc1ccc(-c2c(C)nc(C)c(C(=O)Nc3ccc(Oc4ccnc5cc(OC)c(OC)nc45)c(F)c3)c2O)c(OC)c1` [Compound 713, N-[4-[(6,7-dimethoxy-1,5-naphthyridin-4-yl)oxy]-3-fluorophenyl]-5-(2,4-dimethoxyphenyl)-4-hydroxy-2,6-dimethylpyridine-3-carboxamide], the IC50 in assay [1] (setting [4]) and in assay [3] (setting [5]) was under 100 nM each time.
For the compound `COc1cc2c(Oc3ccc(NC(=O)c4nc(C)c(C)n(-c5ccc(F)cc5)c4=O)cc3F)ccnc2cn1` [Compound 714, N-[3-fluoro-4-[(6-methoxy-1,7-naphthyridin-4-yl)oxy]phenyl]-4-(4-fluorophenyl)-5,6-dimethyl-3-oxopyrazine-2-carboxamide], the IC50 in assay [1] (setting [4]) and in assay [3] (setting [5]) was under 100 nM each time.
As to `CCOc1ccn(-c2ccc(F)cc2)c(=O)c1C(=O)Nc1ccc(Oc2ccnc3cc(OC)c(OC)nc23)c(F)c1` [Compound 715, N-[4-[(6,7-dimethoxy-1,5-naphthyridin-4-yl)oxy]-3-fluorophenyl]-4-ethoxy-1-(4-fluorophenyl)-2-oxopyridine-3-carboxamide], the IC50 in assay [1] (setting [4]), in assay [2] and in assay [3] (setting [5]) was under 100 nM each time.
In the case of `CCOc1ccn(-c2ccc(F)cc2)c(=O)c1C(=O)Nc1ccc(Oc2ccnc3cc(OC)cnc23)c(F)c1` [Compound 716, 4-ethoxy-N-[3-fluoro-4-[(7-methoxy-1,5-naphthyridin-4-yl)oxy]phenyl]-1-(4-fluorophenyl)-2-oxopyridine-3-carboxamide], the IC50 in assay [1] (setting [4]) was under 100 nM; in assay [2], over 300 nM; in assay [3] (setting [5]) it was under 100 nM.
Regarding `CCOc1ccn(-c2ccc(F)cc2)c(=O)c1C(=O)Nc1ccc(Oc2ccnc3cc(OC)cnc23)cc1` [Compound 717, 4-ethoxy-1-(4-fluorophenyl)-N-[4-[(7-methoxy-1,5-naphthyridin-4-yl)oxy]phenyl]-2-oxopyridine-3-carboxamide], the values for the IC50 in assay [1] (setting [4]), in assay [2] and in assay [3] (setting [5]) were under 100 nM, over 300 nM and under 100 nM, respectively.
For `COc1cc2nccc(Oc3ccc(NC(=O)c4c(C)n(CC(F)(F)F)cc(-c5ccc(F)cc5C)c4=O)cc3F)c2nc1OC` [Compound 802, N-[4-[(6,7-dimethoxy-1,5-naphthyridin-4-yl)oxy]-3-fluorophenyl]-5-(4-fluoro-2-methylphenyl)-2-methyl-4-oxo-1 (2,2,2-trifluoroethyl)pyridine-3-carboxamide], the IC50 in assay [1] (PC-3 cells) and in assay [3] (transfected 293A cells) was under 100 nM each time.

Values taken from patent publication US12371428B2 (Exelixis, Inc., priority 2019, dated 2025).
